This test concerns the target EGFR (murine) (UniProt P00533). The conditions noted are these: nih3t3/c7.

The record followed here is the Kinase Knowledgebase extract (Sharma et al. 2016).

Where only a bound is given, the exact number is not on record here.

Sequence of EGFR (murine) (P00533 whole entry, looked up): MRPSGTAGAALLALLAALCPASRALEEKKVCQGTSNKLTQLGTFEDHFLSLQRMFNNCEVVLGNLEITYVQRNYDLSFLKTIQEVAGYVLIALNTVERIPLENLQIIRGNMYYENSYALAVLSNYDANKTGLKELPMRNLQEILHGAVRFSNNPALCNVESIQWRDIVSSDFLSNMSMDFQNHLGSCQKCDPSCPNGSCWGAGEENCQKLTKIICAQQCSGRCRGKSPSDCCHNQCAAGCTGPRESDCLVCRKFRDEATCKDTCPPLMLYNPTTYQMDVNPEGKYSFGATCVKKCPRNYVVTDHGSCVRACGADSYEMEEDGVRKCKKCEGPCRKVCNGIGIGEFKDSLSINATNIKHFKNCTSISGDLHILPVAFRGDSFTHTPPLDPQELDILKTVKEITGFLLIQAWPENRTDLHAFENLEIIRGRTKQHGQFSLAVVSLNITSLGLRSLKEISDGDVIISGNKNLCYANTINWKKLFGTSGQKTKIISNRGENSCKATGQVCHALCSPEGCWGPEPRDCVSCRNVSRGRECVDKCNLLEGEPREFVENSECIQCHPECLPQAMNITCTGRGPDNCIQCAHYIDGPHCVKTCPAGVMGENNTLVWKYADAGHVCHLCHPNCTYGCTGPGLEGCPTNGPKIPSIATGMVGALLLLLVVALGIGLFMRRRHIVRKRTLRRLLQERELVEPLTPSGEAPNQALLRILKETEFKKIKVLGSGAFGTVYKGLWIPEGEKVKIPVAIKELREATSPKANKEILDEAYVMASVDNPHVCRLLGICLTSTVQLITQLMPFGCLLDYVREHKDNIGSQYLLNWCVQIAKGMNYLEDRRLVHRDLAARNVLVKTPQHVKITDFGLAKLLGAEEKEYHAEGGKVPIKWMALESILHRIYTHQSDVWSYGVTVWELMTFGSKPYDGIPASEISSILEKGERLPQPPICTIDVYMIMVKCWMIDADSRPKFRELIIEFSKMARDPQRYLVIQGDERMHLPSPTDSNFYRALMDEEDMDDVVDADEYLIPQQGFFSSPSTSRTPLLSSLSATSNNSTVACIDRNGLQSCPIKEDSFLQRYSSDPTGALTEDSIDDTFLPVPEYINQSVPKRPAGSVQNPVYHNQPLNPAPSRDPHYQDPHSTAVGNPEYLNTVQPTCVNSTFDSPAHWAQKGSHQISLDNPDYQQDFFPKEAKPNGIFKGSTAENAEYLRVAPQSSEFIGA

`CC(=O)c1[nH]c(/C=C2\C(=O)Nc3ccccc32)c(C)c1C` came in with an IC50 of more than 100 µM.

In the case of `CCOC(=O)CCc1c(C(=O)OCC)[nH]c(/C=C2\C(=O)Nc3ccccc32)c1CC(=O)OCC`, the IC50 was more than 10 µM.

Consider `O=C(O)CCc1c(/C=C2\C(=O)Nc3ncccc32)[nH]c2c1CCCC2`, for which the IC50 worked out at 12.5 µM.

In the case of `Cc1c[nH]c(/C=C2\C(=O)Nc3ccccc32)c1CC(=O)O`, the IC50 was more than 100 µM.

For `CCOC(=O)c1[nH]c(/C=C2\C(=O)Nc3ccccc32)c(C(C)=O)c1C`, the IC50 was more than 10 µM.

As for `Cc1[nH]c(/C=C2\C(=O)Nc3ncccc32)c(C)c1CCC(=O)O`, the IC50 was more than 50 µM.

Regarding `COC(=O)Cc1c(Cl)[nH]c(/C=C2\C(=O)Nc3ccccc32)c1C(=O)OC`, the IC50 was more than 50 µM.

In turn, `Cc1cc(C)c(/C=C2\C(=O)Nc3ncccc32)[nH]1` showed an IC50 of more than 100 µM.

As to `COC(=O)CCc1c[nH]c(/C=C2\C(=O)Nc3ccccc32)c1C`, the IC50 was more than 100 µM.

Consider `CCOC(=O)c1c(C)[nH]c(/C=C2\C(=O)Nc3ccc(NC(=O)c4ccc(C(=O)OC)cc4)cc32)c1C`, for which the IC50 was more than 10 µM.

Molecule `O=C1Nc2ncccc2/C1=C/c1cc2c([nH]1)CCCC2` yielded an IC50 of 29.9 µM.

In turn, `Cc1c(/C=C2\C(=O)Nc3ncccc32)[nH]c2c1CCCC2` returned an IC50 of 38.2 µM.

`Cc1c(CCC(=O)O)c[nH]c1/C=C1\C(=O)Nc2ncccc21` showed an IC50 of more than 25 µM.

The molecule `COC(=O)CCc1c[nH]c(/C=C2\C(=O)Nc3cc(OC)c(OC)cc32)c1C` displayed an IC50 of more than 50 µM.

`CCc1c(/C=C2\C(=O)Nc3ccccc32)[nH]c(C(=O)O)c1C` gave an IC50 of more than 100 µM.

In turn, `CCOC(=O)c1c(C)[nH]c(/C=C2\C(=O)Nc3ccc(Br)cc32)c1C` had an IC50 of more than 25 µM.
